Assay results from US11713302B2, “Sulfonamide benzamide derivative and preparation method and application thereof” (WEIFANG MEDICAL UNIVERSITY, priority 2021, dated 2023).
Like-named read-outs stand apart in the source and are kept apart here.

How the values were obtained:
[1] = Cytotoxicity assay (CCK-8) in HepAD38 cells; format: cell-based; details: human
Experimental: (§1) HBV stably transfected hepatocellular carcinoma cell line, HepAD38, was able to secrete HBV viral particles (containing HBsAg, HBeAg and DNA) when the cells were cultured. The amount of HBsAg and HBeAg secreted by the cells and the DNA produced varied under the intervention of anti-HBV target compounds, so the antiviral activity of the sample drug could be calculated by measuring the amount of HBsAg and HBeAg secreted by the cells into the culture supernatant and the HBV DNA produced, with reference to the amount in the unspiked control. Using entecavir as a positive control drug, the concentration of the drug at 50% inhibition of HBV DNA was measured by quantitative PCR at the value of IC50; the concentration of the sample drug causing 50% cell death was measured by CCK-8 at the value of CC50, and the “selectivity index” of the compound to be tested was calculated. SI=CC50/IC50. (1) Cytotoxicity assay
(§2) Each sample was prepared with HepAD38 cell culture medium at a diluted concentration (1 μM) for preliminary activity screening, and a blank control was set up and a positive control drug was added to the 96-well cell culture plate with 3 replicate wells per concentration, and the same concentration was changed every 2 days and a drug-free cell control group was set up for 10 days. Cell viability was measured by CCK-8 assay to determine the toxicity of the drug to HepAD38 cells. Five dilutions (10 μM, 2 μM, 0.4 μM, 0.08 μM and […]) were prepared in HepAD38 cell culture medium for compounds with low toxicity, and a blank control and entecavir and lead compound 5a were used as positive control drugs. Cell culture plates were added to 96-well plates with 3 replicate wells per concentration, and the same concentration was changed every 2 days and a drug-free cell control group was set up for 10 days. Cell viability was measured by CCK-8 assay to determine the toxicity of the drug on HepAD38 cells.

HepAD38 cells = experiment: Cytotoxicity assay (CCK-8) in HepAD38 cells; format: cell-based; details: CCK-8, 10 days
Experimental: as §1, §2

HBV DNA = HBV DNA activity inhibition assay (quantitative PCR) in HepAD38 cells; format: cell-based, hepatitis B virus (HBV)
Experimental: as §1
(2) HBV DNA Activity Inhibition Assay (Quantitative PCR Method)
HepAD38 cells were cultured in 96-well cell culture plate for 24 hours, then 10 μM, 2 μM, 0.4 μM, 0.08 μM and […] drug-containing medium was added and the cells were incubated for 10 days (changed every 2 days), the supernatant was collected and the supernatant HBV DNA content was measured by quantitative PCR.

[2] = Hepatitis B virus, 240 h, supernatant HBV DNA, HepAD38 cells, quantitative PCR, 10 days, read-out: EC50
[3] = Hepatitis B virus, 240 h, supernatant HBV DNA, HepAD38 cells, quantitative PCR, 10 days, read-out: IC90
[4] = Hepatitis B virus, HePAD38, 240 h

SMILES | CC50 at 10 days ([1]; CCK-8) [µM] | CC50 (HepAD38 cells) [µM] | EC50 (HBV DNA; [2]) [nM] | IC90 (HBV DNA; [3]) [nM] | inhibition of HBV DNA replication activity (initial screening) (HBV DNA; quantitative PCR) | CC50 at 10 days ([1]; CCK-8, 10 days) [µM] | EC50 (HBV DNA; [4]) [nM] | IC90 (HBV DNA; [4]) [nM] | IC50 (HBV DNA; Hepatitis B virus, HePAD38, quantitative PCR, read-out: IC50 (anti-HBV DNA replication activity)) [nM]
O=C(Nc1ccc(F)c(Cl)c1)c1cc(S(=O)(=O)NC2CCCCC2)cc2c1OCCO2 [Compound 5c] | > 10 | > 10 | 14.9 | 430 | good HBV DNA replication inhibitory activity | – | – | – | –
O=C(Nc1ccc(F)c(Cl)c1)c1cc(S(=O)(=O)NC2CCCC2)cc2c1OCCO2 [Compound 5b] | > 10 | > 10 | 2.52 | 293 | good HBV DNA replication inhibitory activity | – | – | – | –
C=C1[C@H](CO)[C@@H](O)C[C@@H]1n1cnc2c(=O)[nH]c(N)nc21 [ETV, entecavir, reference compound] | – | – | – | – | – | > 10 | 0.121 | 21 | –
CC(C)NS(=O)(=O)c1cc2c(c(C(=O)Nc3ccc(F)c(Cl)c3)c1)OCCO2 [Compound 5k] | > 10 | > 10 | 0.96 | 99 | good HBV DNA replication inhibitory activity | – | – | – | 0.96
